Reference: PubChem BioAssay (NCI)
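48-hour exposure; five concentrations; linearly interpolated endpoints. GI50 = concentration required for 50% inhibition of growth. TGI is the concentration that stops growth completely.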

What was measured:
Assay in all cases: NCI-60 cell line screen, 48 h; in the data active = GI50 below about 0.43 µM; inactive = the rest
[1] = tested on: T-47D breast
[2] = tested on: MOLT-4 leukemia
[3] = tested on: SF-295 CNS
[4] = tested on: OVCAR-8 ovarian
[5] = tested on: SK-MEL-2 melanoma
[6] = tested on: K-562 leukemia
[7] = tested on: SR leukemia
[8] = tested on: IGROV1 ovarian
[9] = tested on: NCI-H226 lung
[10] = tested on: MALME-3M melanoma
[11] = tested on: HCT-15 colon
[12] = tested on: NCI-H460 lung
[13] = tested on: NCI-H23 lung
[14] = tested on: PC-3 prostate
[15] = tested on: NCI/ADR-RES ovarian
[16] = tested on: OVCAR-3 ovarian
[17] = tested on: SF-268 CNS
[18] = tested on: OVCAR-4 ovarian
[19] = tested on: SNB-19 CNS
[20] = tested on: HL-60(TB) leukemia
[21] = tested on: MDA-MB-231 breast
[22] = tested on: SW-620 colon
[23] = tested on: A549 NSCLC
[24] = tested on: SN12C renal
[25] = tested on: HOP-92 NSCLC
[26] = tested on: BT-549 breast
[27] = tested on: MCF7 breast
[28] = tested on: HCT-116 colon
[29] = tested on: CCRF-CEM leukemia
[30] = tested on: NCI-H522 lung
[31] = tested on: MDA-MB-435
[32] = tested on: RPMI-8226 leukemia
[33] = tested on: HOP-62 NSCLC
[34] = tested on: DU-145 prostate
[35] = tested on: ACHN renal
[36] = tested on: SF-539 CNS
[37] = tested on: TK-10 renal
[38] = tested on: HS 578T breast
[39] = tested on: COLO 205 colon
[40] = tested on: 786-0 renal
[41] = tested on: UO-31 renal
[42] = tested on: HCC-2998 colon
[43] = tested on: M14 melanoma
[44] = tested on: SK-OV-3 ovarian
[45] = tested on: U251 CNS
[46] = tested on: RXF 393 renal
[47] = tested on: EKVX NSCLC
[48] = tested on: KM12 colon
[49] = tested on: SNB-75 CNS
[50] = tested on: CAKI-1 renal
[51] = tested on: HT29 colon
[52] = tested on: SK-MEL-28 melanoma
[53] = tested on: SK-MEL-5 melanoma
[54] = tested on: LOX IMVI melanoma
[55] = tested on: A498 renal

COC(=O)CCCCN=Cc1c(O)c(O)c(C(C)C)c2cc(C)c(-c3c(C)cc4c(C(C)C)c(O)c(O)c(C=NCCCCC(=O)OC)c4c3O)c(O)c12
4980 nM: TGI [28]
6260 nM: TGI [27]
26500 nM: TGI [41]
19200 nM: TGI [2]
5720 nM: TGI [7]
23800 nM: TGI [26]
3080 nM: TGI [44]
4090 nM: TGI [6]
2430 nM: TGI [54]
inactive: GI50 [1] 692 nM | GI50 [2] 783 nM | GI50 [3] 830 nM | GI50 [4] 959 nM | GI50 [5] 1380 nM | GI50 [6] 640 nM | GI50 [7] 917 nM | GI50 [8] 1410 nM | GI50 [9] 1300 nM | GI50 [10] 1470 nM | GI50 [11] 1060 nM | GI50 [12] 1040 nM | GI50 [13] 1070 nM | GI50 [14] 787 nM | GI50 [15] 2320 nM | GI50 [16] 1020 nM | GI50 [17] 1340 nM | GI50 [18] 886 nM | GI50 [19] 713 nM | GI50 [20] 1130 nM | GI50 [21] 1080 nM | GI50 [22] 1270 nM | GI50 [23] 979 nM | GI50 [24] 1140 nM | GI50 [25] 782 nM | GI50 [26] 1500 nM | GI50 [27] 917 nM | GI50 [28] 904 nM | GI50 [29] 746 nM | GI50 [30] 838 nM | GI50 [31] 1460 nM | GI50 [32] 616 nM | GI50 [33] 1220 nM | GI50 [34] 1390 nM | GI50 [35] 1150 nM | GI50 [36] 1530 nM | GI50 [37] 1050 nM | GI50 [38] 1490 nM | GI50 [39] 850 nM | GI50 [40] 1340 nM | GI50 [41] 923 nM | GI50 [42] 1190 nM | GI50 [43] 1230 nM | GI50 [44] 976 nM | GI50 [45] 580 nM | GI50 [46] 596 nM | GI50 [47] 924 nM | GI50 [48] 799 nM | GI50 [49] 2600 nM | GI50 [50] 1170 nM | GI50 [51] 978 nM | GI50 [52] 1770 nM | GI50 [53] 1830 nM | GI50 [54] 822 nM | GI50 [55] 1790 nM
13500 nM: TGI [43]
2440 nM: TGI [39]
22800 nM: TGI [20]
8380 nM: TGI [9]
> 32500 nM: TGI [4] | TGI [5] | TGI [8] | TGI [10] | TGI [11] | TGI [14] | TGI [15] | TGI [16] | TGI [17] | TGI [18] | TGI [19] | TGI [22] | TGI [23] | TGI [24] | TGI [31] | TGI [34] | TGI [35] | TGI [36] | TGI [37] | TGI [38] | TGI [42] | TGI [47] | TGI [48] | TGI [49] | TGI [50] | TGI [52] | TGI [55]
9480 nM: TGI [12]
27000 nM: TGI [13]
15100 nM: TGI [40]
17500 nM: TGI [29]
9210 nM: TGI [33]
7920 nM: TGI [3]
8750 nM: TGI [53]
12100 nM: TGI [21]
17100 nM: TGI [51]
4430 nM: TGI [30]
8040 nM: TGI [1]
2640 nM: TGI [25]
4050 nM: TGI [45]
3180 nM: TGI [46]
20300 nM: TGI [32]
